From PubChem BioAssay (NCI)
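GI50: concentration for 50% inhibition of growth. At the TGI there is no net growth.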

How the values were obtained:
Test in all cases: NCI anticancer screen, dose series, 384-well format
[1] = tested on: SN12C renal
[2] = tested on: SF-295 CNS
[3] = tested on: OVCAR-8 ovarian
[4] = tested on: PC-3 prostate
[5] = tested on: SK-MEL-28 melanoma
[6] = tested on: KM12 colon
[7] = tested on: NCI/ADR-RES ovarian
[8] = tested on: RXF 393 renal
[9] = tested on: NCI-H226 lung
[10] = tested on: HCT-15 colon
[11] = tested on: UACC-257 melanoma
[12] = tested on: CAKI-1 renal
[13] = tested on: COLO 205 colon
[14] = tested on: TK-10 renal
[15] = tested on: T-47D breast
[16] = tested on: SR leukemia
[17] = tested on: HOP-92 NSCLC
[18] = tested on: MDA-MB-435 melanoma
[19] = tested on: 786-0 renal
[20] = tested on: IGROV1 ovarian
[21] = tested on: HT29 colon
[22] = tested on: MCF7 breast
[23] = tested on: HS 578T breast
[24] = tested on: A549 NSCLC
[25] = tested on: NCI-H522 lung
[26] = tested on: ACHN renal
[27] = tested on: SK-MEL-5 melanoma
[28] = tested on: U251 glioblastoma
[29] = tested on: HOP-62 NSCLC
[30] = tested on: SNB-75 CNS
[31] = tested on: A498 renal
[32] = tested on: EKVX NSCLC
[33] = tested on: SF-539 CNS
[34] = tested on: HCC-2998 colon
[35] = tested on: RPMI-8226 leukemia
[36] = tested on: SK-OV-3 ovarian
[37] = tested on: MDA-MB-468 breast
[38] = tested on: BT-549 breast
[39] = tested on: DU-145 prostate
[40] = tested on: NCI-H322M lung
[41] = tested on: CCRF-CEM leukemia
[42] = tested on: OVCAR-4 ovarian
[43] = tested on: NCI-H23 lung
[44] = tested on: MDA-MB-231 breast
[45] = tested on: M14 melanoma
[46] = tested on: MALME-3M melanoma
[47] = tested on: UACC-62 melanoma
[48] = tested on: OVCAR-5 ovarian
[49] = tested on: MOLT-4 leukemia
[50] = tested on: OVCAR-3 ovarian
[51] = tested on: SNB-19 CNS
[52] = tested on: SK-MEL-2 melanoma
[53] = tested on: SW-620 colon
[54] = tested on: HL-60(TB) leukemia
[55] = tested on: NCI-H460 NSCLC
[56] = tested on: SF-268 CNS

`NC(=O)c1ccc(I)c([N+](=O)[O-])c1` was tested, and the GI50 [1] was 62.7 µM, the TGI [1] was > 100 µM and the GI50 [2] was > 100 µM. The TGI [2] was > 100 µM, the GI50 [3] was > 100 µM and the TGI [3] was > 100 µM. For the same compound, the GI50 [4] was > 100 µM, the TGI [4] was > 100 µM and the GI50 [5] was 44.3 µM. For the same compound, the TGI [5] was > 100 µM, the GI50 [6] was 57.4 µM and the TGI [6] was > 100 µM. The GI50 [7] was > 100 µM, the TGI [7] was > 100 µM and the GI50 [8] was 21.4 µM. For the same compound, the TGI [8] was 36.3 µM, the GI50 [9] was 53.4 µM and the TGI [9] was > 100 µM. The GI50 [10] was 44.1 µM, the TGI [10] was > 100 µM and the GI50 [11] was 39.8 µM. The TGI [11] was > 100 µM, the GI50 [12] was 20.6 µM and the TGI [12] was 36.1 µM. The GI50 [13] was > 100 µM, the TGI [13] was > 100 µM and the GI50 [14] was > 100 µM. For the same compound, the TGI [14] was > 100 µM, the GI50 [15] was 21 µM and the TGI [15] was 38.1 µM. For the same compound, the GI50 [16] was 25 µM, the TGI [16] was 57.3 µM and the GI50 [17] was 21.7 µM. The TGI [17] was 42.8 µM, the GI50 [18] was > 100 µM and the TGI [18] was > 100 µM. For the same compound, the GI50 [19] was > 100 µM, the TGI [19] was > 100 µM and the GI50 [20] was 97.7 µM. The TGI [20] was > 100 µM, the GI50 [21] was 44 µM and the TGI [21] was > 100 µM. For the same compound, the GI50 [22] was > 100 µM, the TGI [22] was > 100 µM and the GI50 [23] was 32.4 µM. The TGI [23] was > 100 µM, the GI50 [24] was > 100 µM and the TGI [24] was > 100 µM. The GI50 [25] was 15.4 µM, the TGI [25] was 30.1 µM and the GI50 [26] was > 100 µM. The TGI [26] was > 100 µM, the GI50 [27] was 25.2 µM and the TGI [27] was 89.3 µM. The GI50 [28] was 53.1 µM, the TGI [28] was > 100 µM and the GI50 [29] was 17.9 µM. The TGI [29] was 36.7 µM, the GI50 [30] was 21.4 µM and the TGI [30] was > 100 µM. The GI50 [31] was 91.6 µM, the TGI [31] was > 100 µM and the GI50 [32] was 19.4 µM. For the same compound, the TGI [32] was 35.2 µM, the GI50 [33] was > 100 µM and the TGI [33] was > 100 µM. The GI50 [34] was 28.2 µM, the TGI [34] was 56.2 µM and the GI50 [35] was 33 µM. For the same compound, the TGI [35] was 78.9 µM, the GI50 [36] was 68.7 µM and the TGI [36] was > 100 µM. It also gave a GI50 [37] of 10 µM, a TGI [37] of 23.3 µM and a GI50 [38] of 71.1 µM. The TGI [38] was > 100 µM, the GI50 [39] was > 100 µM and the TGI [39] was > 100 µM. It also gave a GI50 [40] of 33 µM, a TGI [40] of 95.7 µM and a GI50 [41] of 21.4 µM. It also gave a TGI [41] of 45.3 µM, a GI50 [42] of 17.9 µM and a TGI [42] of 31.9 µM. The GI50 [43] was 24.3 µM, the TGI [43] was 52.5 µM and the GI50 [44] was 70.2 µM. The TGI [44] was > 100 µM, the GI50 [45] was 31 µM and the TGI [45] was > 100 µM. The GI50 [46] was 40.6 µM, the TGI [46] was > 100 µM and the GI50 [47] was 39 µM. The TGI [47] was > 100 µM, the GI50 [48] was 21 µM and the TGI [48] was 39.9 µM. The GI50 [49] was 20.5 µM, the TGI [49] was 38.8 µM and the GI50 [50] was 23.6 µM. For the same compound, the TGI [50] was 58.4 µM, the GI50 [51] was > 100 µM and the TGI [51] was > 100 µM. The GI50 [52] was 26.8 µM, the TGI [52] was 72.8 µM and the GI50 [53] was > 100 µM. The TGI [53] was > 100 µM, the GI50 [54] was 18 µM and the TGI [54] was 32.1 µM. The GI50 [55] was 78.5 µM, the TGI [55] was > 100 µM and the GI50 [56] was > 100 µM. For the same compound, the TGI [56] was > 100 µM.
